Values after ≈ are worked out from the molar mass of the structure shown. Marks after values point to notes of the source that are not given here. Where a SMILES comes first, the peptide text is derived from it. Where no end group is shown, it is not given here. [ ]: non-standard residue; d: D form. hArg = N=C(N)NCCCC[C@H](N)C(=O)O; 2Thi = N[C@@H](Cc1cccs1)C(=O)O; Dab = NCC[C@H](N)C(=O)O; Dap = NC[C@H](N)C(=O)O
Key:
[1] = test system: carbapenem-resistant A. baumannii (CRAB) SIPI-025; type: cell-based, Acinetobacter baumannii; settings: carbapenem-resistant (CRAB) SIPI-025, 20 h
Procedure: (§1) The antimicrobial activities of the peptides were tested against E. coli ATCC 25922, P. aeruginosa ATCC 27853, carbapenem-resistant P. aeruginosa SIPI-012, A. baumannii ATCC 19606, carbapenem-resistant A. baumannii SIPI-025, S. aureus ATCC 25923, and C. albicans ATCC 10231. The minimum inhibitory concentration (MIC) values were determined using the microdilution method according to Clinical and Laboratory Standards Institute guidelines ([CLSI, 2008], [2012]). The peptides were dissolved in 10 mM PB to a concentration of 1280 μg/mL as stock solutions.
(§2) For inoculum preparation of bacteria, morphologically similar colonies selected from fresh MH agar plates were transferred using a loop into approximately 10 mL of MH broth in a capped test tube and vortexed. The suspension was adjusted with MH broth to achieve a turbidity equivalent to a 0.5 McFarland standard (BaSO4 solution prepared spectrophotometrically). A working suspension was prepared by making a 1:15 dilution followed by a 1:20 dilution of the stock suspension with MH broth medium to obtain approximately 5 × 10^5 CFU/mL. For inoculum preparation of yeast, five fresh colonies of approximately 1 mm diameter were picked from 24-hour-old cultures of C. albicans and suspended in 5 mL of sterile 0.85% saline. The resulting suspension was vortexed and the cell density was adjusted by adding sufficient sterile saline to achieve a turbidity equivalent to a 0.5 McFarland standard. A working suspension was prepared by making a 1:100 dilution followed by a 1:20 dilution of the stock suspension with RPMI 1640 broth medium to obtain 0.5 × 10^3 to 2.5 × 10^3 CFU/mL. Intermediate twofold dilutions of the peptides were prepared in MH broth and RPMI 1640 medium, and 90 μL aliquots were added to each well in addition to 10 μL of the inoculum prepared above.
(§3) Each plate included a growth control well and a sterility (uninoculated) control well. Colistin, vancomycin hydrochloride, and amphotericin B were used as positive controls for gram-negative bacteria, gram-positive bacteria, and fungi, respectively. The bacterial and fungal plates were incubated at 37°C for 20 h and 35°C for 48 h, respectively, both under ambient atmosphere. The inhibition of microbial growth was assessed visually. The MICs were determined from independent triplicate assays.

A. baumannii ATCC 19606 = type: cell-based, Acinetobacter baumannii; settings: ATCC 19606, 20 h
Procedure: as §1, §2, §3

[2] = test system: proteases secreted by S. aureus ATCC 25923; assay: in vitro; settings: Staphylococcus aureus, S. aureus ATCC 25923 culture supernatant, pH 8
Procedure: (§4) The stabilities of the peptides toward proteases secreted by E. coli ATCC 25922, P. aeruginosa ATCC 27853, A. baumannii ATCC 19606, S. aureus ATCC 25923, and C. albicans ATCC 10231 were also examined. Microbial supernatants were prepared by resuspending single colonies of each strain in 20 mL of an appropriate culture medium followed by incubation at 37°C overnight. MH broth and 2% tryptone/2% dextrose were used as the culture media for bacteria and yeast, respectively. Each culture was then centrifuged at 12,000 × g for 10 min and the supernatant was adjusted to pH 8.0 with HCl or NaOH and then filtered through a 0.22 μm sterile filter membrane ([Zaet et al., 2017]). The peptides were then dissolved in the filtered supernatants to a concentration of 0.5 mg/mL, and the peptide-free supernatants were used as negative controls. The samples were incubated at 37°C for 24 h in a water bath and then analyzed by RP-HPLC as described above.

[3] = test system: proteases secreted by P. aeruginosa ATCC 27853; assay: in vitro; settings: Pseudomonas aeruginosa, P. aeruginosa ATCC 27853 culture supernatant, pH 8
Procedure: as §4

P. aeruginosa ATCC 27853 = type: cell-based, Pseudomonas aeruginosa; settings: ATCC 27853, 20 h
Procedure: as §1, §2, §3

[4] = test system: carbapenem-resistant P. aeruginosa (CRPA) SIPI-012; type: cell-based, Pseudomonas aeruginosa; settings: carbapenem-resistant (CRPA) SIPI-012, 20 h
Procedure: as §1, §2, §3

S. aureus ATCC 25923 = assay: microbe, parasite or virus in culture; type: cell-based, Staphylococcus aureus; settings: ATCC 25923, 20 h
Procedure: as §1, §2, §3

E. coli ATCC 25922 = type: cell-based, Escherichia coli; settings: ATCC 25922, 20 h
Procedure: as §1, §2, §3

human erythrocytes = assay: Hemolytic activity assay; type: cell-based; settings: human RBC in PB, 37°C, 1 h, OD420, total lysis control 0.1% SDS, three technical replicates
Procedure: Whole blood was obtained from a healthy volunteer. The red blood cells (RBC) were then centrifuged (800 × g, 10 min), washed twice with PB, resuspended in 1 mL of PB, and incubated with various concentrations of the peptides (32–128 μM) at 37°C for 1 h. As a positive control, total lysis of the RBC was accomplished by incubation with 0.1% SDS. For each condition, three technical replicates were performed. After incubation, the RBC were centrifuged at 800 × g for 10 min and the amount of hemoglobin released into the supernatant was determined by measuring the optical density OD420 using a SpectraMax i3x microplate reader (Molecular Devices) ([Zaet et al., 2017]).

C. albicans ATCC 10231 = assay: microbe, parasite or virus in culture; type: cell-based, Candida albicans; settings: ATCC 10231, 48 h
Procedure: as §1, §2, §3

RAW 264.7 cells = assay: Cell viability assay (MTT); type: cell-based, mouse; settings: 1–128 μM peptide in DMEM with 4% FBS, 42 h, 595 nm, triplicate
Procedure: The peptides were dissolved in ddH2O to a concentration of 256 μM. RAW 264.7 cells were cultured in 100 μL of DMEM containing 10% FBS and seeded at a density of 1 × 10^4 cells in a 96-well culture plate. The plate was incubated at 37°C under 5% CO2 atmosphere overnight. After attaining 80% confluency, the cells were treated with various concentrations of the peptides (1–128 μM) dissolved in DMEM containing 4% FBS for 42 h. Cytotoxicity was determined using the MTT tetrazolium reduction assay and quantified spectrophotometrically at 595 nm using a SpectraMax i3x microplate reader. The cell viability was calculated with respect to control samples treated only with DMEM containing 4% FBS ([Khara et al., 2016]). Each test was done in triplicate and the concentration required for 50% inhibition of viability (IC50) was determined.

[5] = test system: proteases secreted by C. albicans ATCC 10231; assay: in vitro; settings: Candida albicans, C. albicans ATCC 10231 culture supernatant, pH 8
Procedure: as §4

human plasma proteases = assay: in vitro
Procedure: The peptides were mixed with plasma from healthy volunteers to a final concentration of 0.1 mg/mL and incubated at 37°C. Aliquots (20 or 40 μL) were removed after 0, 2, 4, 6, 8, 12, 24, and 36 h, mixed with 0.05% TFA to a final concentration of 0.01 mg/mL, and incubated on ice for 10 min. After centrifugation (12,000 × g, 5 min), the supernatant was stored at −20°C. The samples were analyzed as described in section “Hydrophobicity” and quantified as described in section “Stability Toward Tryptic Degradation.” All stability tests were performed at least in triplicate. The identities of the metabolites after 12 h of degradation by plasma proteases were determined by LC-MS on a Waters Acquity UPLC-QDa system.

BALB/c mice = assay: In vivo acute toxicity, single injection; design: species or system mouse; settings: single i.v. dose, all tested doses (5, 10, 20 mg/kg), three mice per dose, monitored 24 h
Procedure: Six-week-old mice (approximate weight: 18–20 g, SFP grade) were bred and maintained under specific pathogen-free conditions on a 12 h light/dark cycle. The peptides were dissolved in PBS (pH 7.4) and three mice were used for each dose. As a control, colistin was administered in a similar manner. The mice were monitored for 24 h and mice were weighed at the end of the experiment. The procedure was evaluated and approved by the Ethical Committee of Experimental Animals of the Chia Tai Tianqing Pharmaceutical Group in August 2019.
As summarized in Figure 6, a toxicity score was assigned as follows: no abnormalities = without signs; mild depression, poor motility, purple-black tail, and recovery in 1 h = mild signs; serious depression and poor motility even under stimulation = manifest signs; sudden death within 10 min = died of toxic effects.

Row | Compound | MIC [1] | MIC (A. baumannii ATCC 19606) | remaining at 24 h, 0.5 mg/mL [2] | remaining at 24 h, 0.5 mg/mL [3] | MIC (P. aeruginosa ATCC 27853) | MIC [4] | MIC (S. aureus ATCC 25923) | MIC (E. coli ATCC 25922) | Hemolysis rate (%) (human erythrocytes; 64 μM) | Hemolysis rate (%) (human erythrocytes; 128 μM) | MIC (C. albicans ATCC 10231) | IC50 (RAW 264.7 cells) | remaining at 24 h, 0.5 mg/mL [5] | metabolised at 2 h, 0.1 mg/mL (human plasma proteases) | metabolised at 4 h, 0.1 mg/mL (human plasma proteases) | signs of toxicity after intravenous injection (BALB/c mice)
1 | CC(C)C[C@H](NC(=O)[C@H](Cc1ccc(O)cc1)NC(=O)[C@H](CCN)NC(=O)[C@H](CC(C)C)NC(=O)[C@H](CC(C)C)NC(=O)[C@H](CN)NC(=O)[C@H](CN)NC(=O)[C@H](Cc1ccccc1)NC(=O)[C@H](CC(C)C)NC(=O)[C@H](CCCCNC(=N)N)NC(=O)[C@@H](N)CN)C(=O)N[C@@H](CCCCNC(=N)N)C(=O)N[C@@H](CCN)C(=O)N[C@@H](Cc1cccs1)C(N)=O [UP11] (H-[Dap][hArg]LF[Dap][Dap]LL[Dab]YL[hArg][Dab][2Thi]-NH2) | 2 µg/mL (≈ 1.15 µM) | 2 µg/mL (≈ 1.15 µM) | 35.7 ± 3.82% | 22.4 ± 1.72% | 2 µg/mL (≈ 1.15 µM) | 8 µg/mL (≈ 4.62 µM) | 1 µg/mL (≈ 0.577 µM) | 2 µg/mL (≈ 1.15 µM) | 95.65 ± 2.31 % | ∼100.00* % | 4 µg/mL (≈ 2.31 µM) | 28.3 ± 5.8 µM |  |  |  | 
2 | CC(C)C[C@H](NC(=O)[C@H](Cc1ccc(O)cc1)NC(=O)[C@H](CCN)NC(=O)[C@H](CC(C)C)NC(=O)[C@H](CC(C)C)NC(=O)[C@H](CCN)NC(=O)[C@H](CCN)NC(=O)[C@H](Cc1ccccc1)NC(=O)[C@H](CC(C)C)NC(=O)[C@H](CCCCNC(=N)N)NC(=O)[C@@H](N)CCN)C(=O)N[C@@H](CCCCNC(=N)N)C(=O)N[C@@H](CCN)C(=O)N[C@@H](Cc1ccccc1)C(N)=O [UP13] (H-[Dab][hArg]LF[Dab][Dab]LL[Dab]YL[hArg][Dab]F-NH2) | 2 µg/mL (≈ 1.13 µM) | 2 µg/mL (≈ 1.13 µM) | 78.5 ± 3.39% |  | 2 µg/mL (≈ 1.13 µM) | 4 µg/mL (≈ 2.26 µM) | 0.5 µg/mL (≈ 0.283 µM) | 2 µg/mL (≈ 1.13 µM) | 41.03 ± 1.38% | ∼100.00* % | 4 µg/mL (≈ 2.26 µM) | 21.7 ± 4.14 µM | 34 ± 6.12% |  |  | 
3 | KRLFKKLLKYLRKF-NH2 [Pep05] | 2 µg/mL | 2 µg/mL | 22.2 ± 4.47% |  | 2 µg/mL | 4 µg/mL | 1 µg/mL | 1 µg/mL | 34.39 ± 1.49% | 49.18 ± 2.01% | 4 µg/mL | 13.4 ± 2.85 µM |  | > 40% | > 50% | no obvious abnormalities

Reference: article PMC7688903 (Frontiers in Microbiology, 2020)
